Assay results taken from article PMC5218480 (PLoS ONE, 2017).

Tested on: MV-4-11 cells
Assay: Gene expression microarray analysis (Affymetrix PrimeView) and GSEA
Type: cell-based, human
Design: RFU PODN (11730768_x_at) / Fold change /veh PODN (11730768_x_at) / RFU LINC00158 (11744669_a_at) / Fold change /veh LINC00158 (11744669_a_at) / RFU DUSP10 (11751237_a_at) / Fold change /veh DUSP10 (11751237_a_at) / RFU ID3 (11757404_x_at) / Fold change /veh ID3 (11757404_x_at) / RFU PLEKHG5 (11737974_s_at) / Fold change /veh PLEKHG5 (11737974_s_at) / RFU LRRC4B (11730491_at) / Fold change /veh LRRC4B (11730491_at) / RFU GIMAP4 (11747438_a_at) / Fold change /veh GIMAP4 (11747438_a_at) / RFU KRT8 (11758183_x_at) / Fold change /veh KRT8 (11758183_x_at) / RFU CNN1 (11734310_a_at) / Fold change /veh CNN1 (11734310_a_at) / RFU VPS37D (11726825_at) / Fold change /veh VPS37D (11726825_at) / RFU C10orf10 (11716522_x_at) / Fold change /veh C10orf10 (11716522_x_at) / RFU KIR2DL2 /// KIR2DL4 /// KIR2DL5A /// KIR2DL5B /// KIR2DS1 /// KIR2DS2 /// KIR2DS3 /// KIR2DS4 /// KIR3DL3 /// KIR3DL3 /// KIR3DS1 (11738374_at) / Fold change /veh KIR2DL2 /// KIR2DL4 /// KIR2DL5A /// KIR2DL5B /// KIR2DS1 /// KIR2DS2 /// KIR2DS3 /// KIR2DS4 /// KIR3DL3 /// KIR3DL3 /// KIR3DS1 (11738374_at) / RFU C1QL1 (11718748_at) / Fold change /veh C1QL1 (11718748_at) / RFU TMPRSS4 (11747572_a_at) / Fold change /veh TMPRSS4 (11747572_a_at) / RFU HAMP (11756126_x_at) / Fold change /veh HAMP (11756126_x_at) / RFU RNFT2 (11725882_a_at) / Fold change /veh RNFT2 (11725882_a_at) / RFU NR4A2 (11747474_a_at) / Fold change /veh NR4A2 (11747474_a_at) / RFU ABCC12 (11746883_a_at) / Fold change /veh ABCC12 (11746883_a_at) / RFU TMEM136 (11760407_x_at) / Fold change /veh TMEM136 (11760407_x_at) / RFU CLDN22 /// WWC2 (11732394_at) / Fold change /veh CLDN22 /// WWC2 (11732394_at) / RFU HLA-DPB1 (11760878_x_at) / Fold change /veh HLA-DPB1 (11760878_x_at) / RFU SPINT1 (11716480_a_at) / Fold change /veh SPINT1 (11716480_a_at) / RFU GAP43 (11754022_s_at) / Fold change /veh GAP43 (11754022_s_at) / RFU A4GNT (11735810_at) / Fold change /veh A4GNT (11735810_at) / RFU PRB3 (11715151_x_at) / Fold change /veh PRB3 (11715151_x_at) / RFU TUBB4B (11761932_at) / Fold change /veh TUBB4B (11761932_at) / RFU CAPN14 (11732068_a_at) / Fold change /veh CAPN14 (11732068_a_at) / RFU TMCC2 (11721928_a_at) / Fold change /veh TMCC2 (11721928_a_at) / RFU IRGQ (11745062_a_at) / Fold change /veh IRGQ (11745062_a_at) / RFU FAM174B (11720279_a_at) / Fold change /veh FAM174B (11720279_a_at) / RFU TMPRSS4 (11748680_a_at) / Fold change /veh TMPRSS4 (11748680_a_at) / RFU FAM212B (11763350_a_at) / Fold change /veh FAM212B (11763350_a_at) / RFU PLEKHG5 (11743358_a_at) / Fold change /veh PLEKHG5 (11743358_a_at) / RFU ZSCAN30 (11745921_a_at) / Fold change /veh ZSCAN30 (11745921_a_at) / RFU CMKLR1 (11741424_a_at) / Fold change /veh CMKLR1 (11741424_a_at) / RFU LOC101060620 /// MAPK8IP1 (11723275_at) / Fold change /veh LOC101060620 /// MAPK8IP1 (11723275_at) / RFU SPTSSB (11747773_x_at) / Fold change /veh SPTSSB (11747773_x_at) / RFU PRSS12 (11739890_at) / Fold change /veh PRSS12 (11739890_at) / RFU BIN1 (11741810_x_at) / Fold change /veh BIN1 (11741810_x_at) / RFU WNT11 (11732464_a_at) / Fold change /veh WNT11 (11732464_a_at) / RFU C10orf10 (11716521_a_at) / Fold change /veh C10orf10 (11716521_a_at) / RFU C5orf56 (11738089_at) / Fold change /veh C5orf56 (11738089_at) / RFU CYB561 (11721691_x_at) / Fold change /veh CYB561 (11721691_x_at) / RFU ANKRD19P (11752326_a_at) / Fold change /veh ANKRD19P (11752326_a_at) / RFU OR2T12 /// OR2T33 /// OR2T8 (11738714_s_at) / Fold change /veh OR2T12 /// OR2T33 /// OR2T8 (11738714_s_at) / RFU VCAN (11748164_a_at) / Fold change /veh VCAN (11748164_a_at) / RFU JSRP1 (11732532_at) / Fold change /veh JSRP1 (11732532_at) / RFU KRTAP10-11 (11738290_x_at) / Fold change /veh KRTAP10-11 (11738290_x_at) / RFU MYO3A (11730013_a_at) / Fold change /veh MYO3A (11730013_a_at) / RFU EBF3 (11725865_a_at) / Fold change /veh EBF3 (11725865_a_at) / RFU CAMK2N1 (11719241_x_at) / Fold change /veh CAMK2N1 (11719241_x_at) / RFU C5orf56 (11738088_a_at) / Fold change /veh C5orf56 (11738088_a_at) / RFU OLFML3 (11715873_a_at) / Fold change /veh OLFML3 (11715873_a_at) / RFU LOC100653217 /// NTM (11731650_a_at) / Fold change /veh LOC100653217 /// NTM (11731650_a_at) / RFU MAPK11 (11762145_a_at) / Fold change /veh MAPK11 (11762145_a_at) / RFU FIZ1 (11724087_x_at) / Fold change /veh FIZ1 (11724087_x_at) / RFU OASL (11726364_x_at) / Fold change /veh OASL (11726364_x_at) / RFU SOX15 (11748057_x_at) / Fold change /veh SOX15 (11748057_x_at) / RFU CD79A (11719716_a_at) / Fold change /veh CD79A (11719716_a_at) / RFU HIST1H1D (11736915_at) / Fold change /veh HIST1H1D (11736915_at) / RFU CASKIN2 (11723855_a_at) / Fold change /veh CASKIN2 (11723855_a_at) / RFU LOC730098 (11760151_x_at) / Fold change /veh LOC730098 (11760151_x_at) / RFU OR4N2 (11742367_at) / Fold change /veh OR4N2 (11742367_at) / RFU PRRT2 (11749266_a_at) / Fold change /veh PRRT2 (11749266_a_at) / RFU SNX32 (11753110_a_at) / Fold change /veh SNX32 (11753110_a_at) / RFU CDHR5 (11726645_a_at) / Fold change /veh CDHR5 (11726645_a_at) / RFU RCAN1 (11760418_a_at) / Fold change /veh RCAN1 (11760418_a_at) / RFU FAM167A (11723789_a_at) / Fold change /veh FAM167A (11723789_a_at) / RFU FAM26E (11764081_at) / Fold change /veh FAM26E (11764081_at) / RFU ISYNA1 (11749810_s_at) / Fold change /veh ISYNA1 (11749810_s_at) / RFU ACY1 (11761880_at) / Fold change /veh ACY1 (11761880_at) / RFU 11764098_at / Fold change /veh 11764098_at / RFU SAMD14 (11745864_x_at) / Fold change /veh SAMD14 (11745864_x_at) / RFU NPB (11741838_a_at) / Fold change /veh NPB (11741838_a_at) / RFU TMPRSS6 (11731388_a_at) / Fold change /veh TMPRSS6 (11731388_a_at) / RFU KRTAP10-2 (11738614_at) / Fold change /veh KRTAP10-2 (11738614_at) / RFU ARHGAP8 /// PRR5-ARHGAP8 (11727945_x_at) / Fold change /veh ARHGAP8 /// PRR5-ARHGAP8 (11727945_x_at) / RFU KRTAP5-7 /// NADSYN1 (11734609_at) / Fold change /veh KRTAP5-7 /// NADSYN1 (11734609_at) / RFU RASL12 (11751679_a_at) / Fold change /veh RASL12 (11751679_a_at) / RFU CDKN2B (11736163_a_at) / Fold change /veh CDKN2B (11736163_a_at) / RFU PRF1 (11729649_at) / Fold change /veh PRF1 (11729649_at) / RFU, ZNF638 /// ZNF638-IT1 / Fold change vs veh, ZNF638 /// ZNF638-IT1 / RFU, PANK3 / Fold change vs veh, PANK3 / RFU, SH3YL1 / Fold change vs veh, SH3YL1 / RFU, ZEB2 / Fold change vs veh, ZEB2 / RFU, NRIP1 / Fold change vs veh, NRIP1 / RFU, PTTG1IP / Fold change vs veh, PTTG1IP / RFU, CAPN2 / Fold change vs veh, CAPN2 / RFU, MED14 / Fold change vs veh, MED14 / RFU, SNORA58 / Fold change vs veh, SNORA58 / RFU, C1orf63 / Fold change vs veh, C1orf63 / RFU, LRRFIP1 / Fold change vs veh, LRRFIP1 / RFU, NDUFAF7 / Fold change vs veh, NDUFAF7 / RFU, SLC12A2 / Fold change vs veh, SLC12A2 / RFU, IBTK / Fold change vs veh, IBTK / RFU, ESF1 / Fold change vs veh, ESF1 / Fold change vs veh, TMEM50B / RFU, TAOK1 / Fold change vs veh, TAOK1 / RFU, ACBD3 / Fold change vs veh, ACBD3 / RFU, TMA16 / Fold change vs veh, TMA16 / RFU, RWDD3 / Fold change vs veh, RWDD3 / RFU, BCAT1 / Fold change vs veh, BCAT1 / RFU, EDEM3 / Fold change vs veh, EDEM3 / RFU, TMEM33 / Fold change vs veh, TMEM33 / RFU, WDR75 / Fold change vs veh, WDR75 / RFU, AHCTF1 / Fold change vs veh, AHCTF1 / RFU, TFRC / Fold change vs veh, TFRC / RFU, ZDHHC17 / Fold change vs veh, ZDHHC17 / RFU, NOM1 / Fold change vs veh, NOM1 / RFU, ARL8B / Fold change vs veh, ARL8B / RFU, ZBTB11 / Fold change vs veh, ZBTB11 / RFU, TAMM41 / Fold change vs veh, TAMM41 / RFU, KIAA1704 /// LOC100996395 / Fold change vs veh, KIAA1704 /// LOC100996395 / RFU, ING1 / Fold change vs veh, ING1 / RFU, TRMT61B / Fold change vs veh, TRMT61B / RFU, FUBP3 / Fold change vs veh, FUBP3 / RFU, TP53 / Fold change vs veh, TP53 / RFU, TNKS2 / Fold change vs veh, TNKS2 / RFU, ZFP14 / Fold change vs veh, ZFP14 / RFU, ACTR2 / Fold change vs veh, ACTR2 / RFU, PPP3R1 / Fold change vs veh, PPP3R1 / RFU, PIK3R1 / Fold change vs veh, PIK3R1 / RFU, HNRNPA1 / Fold change vs veh, HNRNPA1 / RFU, RNF170 / Fold change vs veh, RNF170 / RFU, ZNF28 / Fold change vs veh, ZNF28 / RFU, RNGTT / Fold change vs veh, RNGTT / RFU, OGT / Fold change vs veh, OGT / RFU, BRD1 / Fold change vs veh, BRD1 / RFU, MARS / Fold change vs veh, MARS / RFU, ZNF655 / Fold change vs veh, ZNF655 / RFU, FAHD1 / Fold change vs veh, FAHD1 / RFU, BDP1 / Fold change vs veh, BDP1 / RFU, LRRCC1 / Fold change vs veh, LRRCC1 / RFU, ARID1A / Fold change vs veh, ARID1A / RFU, ZNF146 / Fold change vs veh, ZNF146 / RFU, ZNF330 / Fold change vs veh, ZNF330 / RFU, GPN3 / Fold change vs veh, GPN3 / RFU, C9orf123 / Fold change vs veh, C9orf123 / RFU, N4BP2L2 / Fold change vs veh, N4BP2L2 / RFU, ARFIP1 / Fold change vs veh, ARFIP1 / RFU, FAM179B / Fold change vs veh, FAM179B / RFU, BCL10 / Fold change vs veh, BCL10 / RFU, UHRF1BP1L / Fold change vs veh, UHRF1BP1L / RFU, BET1 / Fold change vs veh, BET1 / RFU, CNOT2 / Fold change vs veh, CNOT2 / RFU, ZNF268 / Fold change vs veh, ZNF268 / Fold change vs veh, ZNF507 / RFU, DGCR2 / Fold change vs veh, DGCR2 / RFU, WDSUB1 / Fold change vs veh, WDSUB1 / Fold change vs veh, HSP90B1 /// MIR3652 / RFU, ADSS / Fold change vs veh, ADSS / RFU, GK / Fold change vs veh, GK / RFU, ZNF148 / Fold change vs veh, ZNF148 / RFU, TAF9 / Fold change vs veh, TAF9 / RFU, SLC1A5 / Fold change vs veh, SLC1A5 / RFU, SLMO2 / Fold change vs veh, SLMO2 / RFU, ABCC4 / Fold change vs veh, ABCC4 / RFU, LOC101060439 /// RAP1B / Fold change vs veh, LOC101060439 /// RAP1B / RFU, RFX7 / Fold change vs veh, RFX7 / RFU, GTPBP10 / Fold change vs veh, GTPBP10 / RFU, CNEP1R1 / Fold change vs veh, CNEP1R1 / RFU, BIVM-ERCC5 /// ERCC5 / Fold change vs veh, BIVM-ERCC5 /// ERCC5 / RFU, ILF3 / Fold change vs veh, ILF3 / RFU 11762660_at / Fold change /veh 11762660_at / RFU VCAN (11757783_s_at) / Fold change /veh VCAN (11757783_s_at) / RFU DDX43 (11728927_at) / Fold change /veh DDX43 (11728927_at) / RFU KRT8 (11758188_x_at) / Fold change /veh KRT8 (11758188_x_at) / RFU NKD1 (11759106_at) / Fold change /veh NKD1 (11759106_at) / RFU SRD5A1 (11742802_a_at) / Fold change /veh SRD5A1 (11742802_a_at) / RFU TPSAB1 /// TPSB2 (11721975_s_at) / Fold change /veh TPSAB1 /// TPSB2 (11721975_s_at) / RFU GSTM3 (11746129_a_at) / Fold change /veh GSTM3 (11746129_a_at) / RFU IL23R (11737362_x_at) / Fold change /veh IL23R (11737362_x_at) / RFU TMEM51 (11727254_a_at) / Fold change /veh TMEM51 (11727254_a_at) / RFU PIWIL2 (11732686_x_at) / Fold change /veh PIWIL2 (11732686_x_at) / RFU ORM1 (11744905_x_at) / Fold change /veh ORM1 (11744905_x_at) / RFU CCDC152 (11743942_at) / Fold change /veh CCDC152 (11743942_at) / RFU ECM1 (11717891_a_at) / Fold change /veh ECM1 (11717891_a_at) / RFU IL23R (11748794_a_at) / Fold change /veh IL23R (11748794_a_at) / RFU TNFAIP8L3 (11732012_x_at) / Fold change /veh TNFAIP8L3 (11732012_x_at) / RFU MBOAT4 (11741988_at) / Fold change /veh MBOAT4 (11741988_at) / RFU 11764193_at / Fold change /veh 11764193_at / RFU TMEM53 (11763286_at) / Fold change /veh TMEM53 (11763286_at) / RFU MAGEB2 (11727129_at) / Fold change /veh MAGEB2 (11727129_at) / RFU TMEM200A (11744735_a_at) / Fold change /veh TMEM200A (11744735_a_at) / RFU CCDC152 (11751479_a_at) / Fold change /veh CCDC152 (11751479_a_at) / RFU FAM211A (11726209_a_at) / Fold change /veh FAM211A (11726209_a_at) / RFU RGS16 (11746705_a_at) / Fold change /veh RGS16 (11746705_a_at) / RFU VCAN (11755009_s_at) / Fold change /veh VCAN (11755009_s_at) / RFU RHOB (11743442_s_at) / Fold change /veh RHOB (11743442_s_at) / RFU RGS16 (11720943_a_at) / Fold change /veh RGS16 (11720943_a_at) / RFU RGS16 (11720944_at) / Fold change /veh RGS16 (11720944_at) / RFU, VPS4B / Fold change vs veh, VPS4B / RFU, CREB1 / Fold change vs veh, CREB1 / RFU, DNAJC13 / Fold change vs veh, DNAJC13 / RFU, GNAQ / Fold change vs veh, GNAQ / RFU, CDK5R1 / Fold change vs veh, CDK5R1 / RFU, ZRANB3 / Fold change vs veh, ZRANB3 / RFU, CUL4A / Fold change vs veh, CUL4A / RFU, CCNY / Fold change vs veh, CCNY / RFU, UFL1 / Fold change vs veh, UFL1 / RFU, COG3 / Fold change vs veh, COG3 / RFU, DIAPH2 / Fold change vs veh, DIAPH2 / RFU, SKA2 / Fold change vs veh, SKA2 / RFU, AFF3 / Fold change vs veh, AFF3 / RFU, LMF1 / Fold change vs veh, LMF1 / RFU, IPO11 / Fold change vs veh, IPO11 / RFU, DFFB / Fold change vs veh, DFFB / RFU, FOXP1 / Fold change vs veh, FOXP1 / RFU, CARD8 / Fold change vs veh, CARD8 / RFU, STRN3 / Fold change vs veh, STRN3 / RFU, ADK / Fold change vs veh, ADK / RFU, RASSF2 / Fold change vs veh, RASSF2 / RFU, WIPF1 / Fold change vs veh, WIPF1 / RFU, LARP1B / Fold change vs veh, LARP1B / RFU, RASA1 / Fold change vs veh, RASA1 / RFU, RB1 / Fold change vs veh, RB1 / RFU, PPFIA1 / Fold change vs veh, PPFIA1 / RFU, MAT2A / Fold change vs veh, MAT2A / RFU, CCT5 / Fold change vs veh, CCT5 / RFU, WDR92 / Fold change vs veh, WDR92 / RFU, CUX1 / Fold change vs veh, CUX1 / RFU, TTC7A / Fold change vs veh, TTC7A / RFU, TMEM135 / Fold change vs veh, TMEM135 / RFU, DEPTOR / Fold change vs veh, DEPTOR / RFU, CPM / Fold change vs veh, CPM / RFU, DNAJB6 / Fold change vs veh, DNAJB6 / RFU, CACNA2D3 / Fold change vs veh, CACNA2D3 / RFU, DTX4 / Fold change vs veh, DTX4 / RFU, TFCP2 / Fold change vs veh, TFCP2 / RFU, GMCL1 /// GMCL1P1 / Fold change vs veh, GMCL1 /// GMCL1P1 / RFU, AEBP2 / Fold change vs veh, AEBP2 / RFU, SNHG1 /// SNORD22 /// SNORD25 /// SNORD26 /// SNORD27 /// SNORD28 /// SNORD29 /// SNORD31 / Fold change vs veh, SNHG1 /// SNORD22 /// SNORD25 /// SNORD26 /// SNORD27 /// SNORD28 /// SNORD29 /// SNORD31 / Fold change (Aza/veh), C12orf56 (ProbeSet 11735607_a_at) / Fold change (ACY-1035/veh), C12orf56 (ProbeSet 11735607_a_at) / Fold change (Aza/veh), FGFR1OP (ProbeSet 11751329_s_at) / Fold change (ACY-1035/veh), FGFR1OP (ProbeSet 11751329_s_at) / Fold change (Aza/veh), VPS36 (ProbeSet 11739960_a_at) / Fold change (ACY-1035/veh), VPS36 (ProbeSet 11739960_a_at) / RFU SYPL1 (11715823_x_at) / Fold change /veh SYPL1 (11715823_x_at) / RFU IGFBP7 (11715501_s_at) / Fold change /veh IGFBP7 (11715501_s_at) / RFU REEP3 (11722064_at) / Fold change /veh REEP3 (11722064_at) / RFU IGLL1 (11728026_x_at) / Fold change /veh IGLL1 (11728026_x_at): dose or concentration left out as unconfirmed
Details: MV-4-11 cells, 48 hours

Compound: Nc1ncn([C@@H]2O[C@H](CO)[C@@H](O)[C@H]2O)c(=O)n1 [azacitidine]
- Fold change /veh FAM26E (11764081_at): 0.84
